Like-named read-outs stand apart in the source and are kept apart here. One block for each molecule: values may come before it.
Experiments:
[1] = system: Eimeria acervulina and Eimeria tenella; assay: Treatment of subclinical coccidiosis in broiler chickens (in vivo); design: species or system Eimeria acervulina and Eimeria tenella (in chickens); conditions: infected chickens, 5 days treatment in feed (salinomycin 40 mg/kg feed, carvacrol or thymol 75 mg/kg feed); for Weight gain (grams ± SD) Day 5: day 5, immediately after stopping treatment; for Weight gain (grams ± SD) Day 15: day 15, 10 days after stopping treatment
Method: These in vivo tests were designed to measure weight gain, consumption index, daily oocyst output and appearance of fecal matter in treated chickens.
The experiment was carried out on 200 chickens aged 22 days (average weight 620 g) afflicted with subclinical coccidiosis sampled from a group of 10,000 broiler chickens.
Subclinical coccidiosis was diagnosed on day 20. The mean oocyst output in the experimental animals was 50,000 oocysts/g (OPG).
The antiparasitic agent used is salinomycin, one of the most widely used antiparasitics for this type of infection. Two antiparasitic pharmaceutical compositions according to the invention were prepared by mixing salinomycin at different concentrations with carvacrol or thymol at a sub-inhibitory concentration of 75 mg/kg of feed.
Antiparasitic activity was also determined either with salinomycin alone, or with carvacrol alone or thymol alone. Antiparasitic activity was measured according to the conventional criteria for this type of infection: weight gain, consumption index, daily oocyst output and appearance of fecal matter. These criteria were measured on day 5 (immediately after stopping treatment) and on day 15 (10 days after stopping treatment).
The sample was subdivided into seven groups of […]:
Group 1: Uninfected, untreated animals (healthy controls). Mean weight on day 22: 750 g.
Group 2: Infected, untreated animals (affection controls).
Group 3: Infected animals treated with salinomycin at a dose of 40 mg/kg of feed. Group 4: Infected animals treated with carvacrol 75 mg/kg of feed.
Group 5: Infected animals treated with thymol 75 mg/kg of feed.
Group 6: Infected animals treated with salinomycin 40 mg/kg of feed potentiated by carvacrol 75 mg/kg of feed.
Group 7: Infected animals treated with salinomycin 40 mg/kg of feed potentiated by thymol 75 mg/kg of feed.
The antiparasitic agents used were mixed with this feed during the five days of treatment. The animals had free access to the feed throughout the experiment.

[2] = system: Plasmodium berghei ANKA; assay: Cerebral malaria model, CBA/J mice infected with Plasmodium berghei ANKA (in vivo)
Description: Here, the intrinsic antimalarial activity of carvacrol as well as artesunate potentiated by carvacrol was studied in vivo in an animal model of cerebral malaria (neuromalaria). The reference model for this type of infection makes use of CBA/J mice infected with Plasmodium berghei ANKA, an agent that causes cerebral malaria.
The intraperitoneal route was used for infection and treatment of the mice.
In this model, the onset of the first clinical signs occurs by day 4 or 5 (D4 or D5) after infection. Animals presenting these signs die in the next two days (D6 and D7).
The test was carried out on five groups of 10 mice as follows:
Group 1: Uninfected, untreated controls
Group 2: Infected mice treated with carvacrol (60 mg/kg of weight) twice a day every 12 hours
Group 3: Infected mice treated with carvacrol (40 mg/kg of weight) twice a day every 12 hours
Group 4: Infected mice treated with artesunate (40 mg/kg of weight) once a day
Group 5: Infected mice treated with artesunate (40 mg/kg of weight) once a day and with carvacrol (40 mg/kg of weight) twice a day.
Treatment commenced five days after infection (D5) and continued for three days (D5, D6, D7).

[3] = system: Plasmodium falciparum clones 3d7, HB3, Dd2 and 7G8; assay: In vitro IC50, growth of Plasmodium falciparum clones on human red blood cells (SybrGreen DNA fluorescence); type: cell-based
Method: The experiment was carried out with four clones (named 3d7, HB3, Dd2 and 7G8) of the malarial agent Plasmodium falciparum, a parasitic disease also known as malaria. These clones are laboratory reference models commonly used to screen drugs for antimalarial activity.
Plasmodium falciparum was grown on human red blood cells. The test was carried out in 96-well plates in which infected red blood cells (synchronized with sorbitol) were contacted with the different treatments for 72 hours at 37° C. in an incubator with controlled atmosphere (5% CO2, 1% O2, 94% N2). Growth of the pathogen was measured by quantifying fluorescent DNA in the presence of SybrGreen.
An antiparasitic pharmaceutical composition according to the invention was prepared by mixing artesunate at different concentrations with carvacrol or eugenol at sub-inhibitory concentrations of 0.05 mM and 0.2 mM, respectively. […] This pharmaceutical composition according to the invention was named artesunate P eugenol or artesunate P carvacrol, the letter P signifying potentiation by eugenol or carvacrol.
In each case, antiparasitic activity was determined either with artesunate alone, or with carvacrol alone, or with eugenol alone, or with the composition of the invention.
The IC50 was determined with Harald Noedl's HN NonLin V1.051 Beta software based on the fluorescence values.
The experiment was carried out with the same Plasmodium falciparum clones as in example 2 (3d7, HB3, Dd2 and 7G8), the first two clones (3d7 and HB3) being susceptible and the other two (Dd2 and 7G8) being resistant to chloroquine.
Chloroquine, one of the most widely used antiparasitic agents, is tested. […] This pharmaceutical composition was named chloroquine P eugenol, the letter P signifying potentiation by eugenol.
In each case, antiparasitic activity was determined either with chloroquine alone, or with eugenol alone, or with the composition of the invention.
The IC50 was determined as in example 2.
The experiment was carried out with the same Plasmodium falciparum clones as in examples 2 and 3 (3d7, HB3, Dd2 and 7G8), the first two clones (3d7 and HB3) being susceptible and the other two (Dd2 and 7G8) being resistant to […].
Mefloquine, one of the most widely used antiparasitic agents, is tested. […] This pharmaceutical composition according to the invention was named mefloquine P eugenol, the letter P signifying potentiation by eugenol.
In each case, antiparasitic activity was determined either with mefloquine alone, or with eugenol alone, or with the composition of the invention.
The IC50 was determined as in examples 2 and 3.

[4] = artesunate 40 mg/kg once a day, intraperitoneal, D5-D7
[5] = carvacrol 40 mg/kg twice a day (80 mg/kg/24 h), intraperitoneal, D5-D7
[6] = carvacrol 60 mg/kg twice a day (120 mg/kg/24 h), intraperitoneal, D5-D7

Compound: CC[C@@H](C(=O)[C@@H](C)[C@@H](O)[C@H](C)[C@@H]1O[C@@H]([C@@H](CC)C(=O)O)CC[C@@H]1C)[C@H]1O[C@]2(C=C[C@@H](O)[C@]3(CC[C@@](C)([C@H]4CC[C@](O)(CC)[C@H](C)O4)O3)O2)[C@H](C)C[C@@H]1C [Salinomycin, salinomycin, reference compound]
Consumption index Day 5 [1]: 2.2 | Fecal appearance Day 5 [1]: Diarrheal | Oocyst output (OPG ± SD) Day 5 [1]: 110,000 ± 6700 OPG | Weight gain (grams ± SD) Day 5 [1]: 182 ± 28 grams | Consumption index Day 15 [1]: 2.9 | Fecal appearance Day 15 [1]: Diarrheal | Oocyst output (OPG ± SD) Day 15 [1]: 164,000 ± 7200 OPG | Weight gain (grams ± SD) Day 15 [1]: 835 ± 44 grams

Compound: Cc1ccc(C(C)C)c(O)c1 [Thymol, thymol]
Consumption index Day 5 [1]: 2.45 | Fecal appearance Day 5 [1]: Diarrheal | Oocyst output (OPG ± SD) Day 5 [1]: 98,000 ± 4200 OPG | Weight gain (grams ± SD) Day 5 [1]: 180 ± 52 grams | Consumption index Day 15 [1]: 3.3 | Fecal appearance Day 15 [1]: Diarrheal | Oocyst output (OPG ± SD) Day 15 [1]: 136,000 ± 6500 OPG | Weight gain (grams ± SD) Day 15 [1]: 840 ± 45 grams

Compound: C[C@H]1[C@H](OC(=O)CCC(=O)O)O[C@@H]2O[C@@]3(C)CC[C@H]4[C@H](C)CC[C@@H]1[C@@]24OO3 [artesunate]
% mortality [2, 4]: 100% | Survival time of animals that died [2, 4]: 7 days | protection of treated animals (in words) ([2]; artesunate alone 40 mg/kg/24 h): does not provide any protection | IC50 ([3]; Plasmodium falciparum, Erythrocyte, 72 h, read-out: IC50 artesunate alone, Clone 3d7): 0.00214 µM | IC50 ([3]; Plasmodium falciparum, Erythrocyte, 72 h, read-out: IC50 artesunate alone, Clone 7G8): 0.001 µM | IC50 ([3]; Plasmodium falciparum, Erythrocyte, 72 h, read-out: IC50 artesunate alone, Clone Dd2): 0.00266 µM | IC50 ([3]; Plasmodium falciparum, Erythrocyte, 72 h, read-out: IC50 artesunate alone, Clone HB3): 0.00228 µM | IC50 ([3]; read-out: IC50 artesunate alone, Clone 7G8, 72 hours): 0.00125 µM

Compound: Cc1ccc(C(C)C)cc1O [carvacrol]
protection of treated animals (in words) ([2]; carvacrol 40 mg/kg twice a day (80 mg/kg/24 h)): does not afford any protection | % mortality [2, 5]: 100% | Survival time of animals that died [2, 5]: 7.5 days | % survivor at D12 [2, 6]: 80% | Survival time of animals that died [2, 6]: 7.5 days | % mortality ([2]; carvacrol 60 mg/kg twice a day (120 mg/kg/24 h), intraperitoneal, D5-D7 after infection): 20% | IC50 ([3]; Plasmodium falciparum, Erythrocyte, 72 h, read-out: IC50 carvacrol alone, Clone 3d7): 330 µM | IC50 ([3]; Plasmodium falciparum, Erythrocyte, 72 h, read-out: IC50 carvacrol alone, Clone 7G8): 110 µM | IC50 ([3]; Plasmodium falciparum, Erythrocyte, 72 h, read-out: IC50 carvacrol alone, Clone Dd2): 160 µM | IC50 ([3]; Plasmodium falciparum, Erythrocyte, 72 h, read-out: IC50 carvacrol alone, Clone HB3): 220 µM | Consumption index Day 5 [1]: 2.4 | Fecal appearance Day 5 [1]: Diarrheal | Oocyst output (OPG ± SD) Day 5 [1]: 105,000 ± 5900 OPG | Weight gain (grams ± SD) Day 5 [1]: 176 ± 32 grams | Consumption index Day 15 [1]: 3 | Fecal appearance Day 15 [1]: Diarrheal | Oocyst output (OPG ± SD) Day 15 [1]: 147,000 ± 4300 OPG | Weight gain (grams ± SD) Day 15 [1]: 812 ± 51 grams

Compound: CCN(CC)CCCC(C)Nc1ccnc2cc(Cl)ccc12 (stereo not drawn) [chloroquine]
IC50 ([3]; Plasmodium falciparum, Erythrocyte, 72 h, read-out: IC50 chloroquine alone, Clone 3d7 (susceptible to chloroquine)): 0.0223 µM | IC50 ([3]; Plasmodium falciparum, Erythrocyte, 72 h, read-out: IC50 chloroquine alone, Clone 7G8 (resistant to chloroquine)): 0.445 µM | IC50 ([3]; Plasmodium falciparum, Erythrocyte, 72 h, read-out: IC50 chloroquine alone, Clone Dd2 (resistant to chloroquine)): 0.494 µM | IC50 ([3]; Plasmodium falciparum, Erythrocyte, 72 h, read-out: IC50 chloroquine alone, Clone HB3 (susceptible to chloroquine)): 0.0371 µM

Compound: C=CCc1ccc(O)c(OC)c1 [eugenol]
IC50 ([3]; Plasmodium falciparum, Erythrocyte, 72 h, read-out: IC50 eugenol alone, Clone 3d7): 1250 µM | IC50 ([3]; Plasmodium falciparum, Erythrocyte, 72 h, read-out: IC50 eugenol alone, Clone 7G8): 400 µM | IC50 ([3]; Plasmodium falciparum, Erythrocyte, 72 h, read-out: IC50 eugenol alone, Clone Dd2): 660 µM | IC50 ([3]; Plasmodium falciparum, Erythrocyte, 72 h, read-out: IC50 eugenol alone, Clone HB3): 660 µM

IC50 ([3]; Plasmodium falciparum, Erythrocyte, 72 h, Clone 3d7 (susceptible to mefloquine), read-out: IC50 mefloquine alone): 0.00883 µM | IC50 ([3]; Plasmodium falciparum, Erythrocyte, 72 h, Clone 7G8 (resistant to mefloquine), read-out: IC50 mefloquine alone): 0.0153 µM | IC50 ([3]; Plasmodium falciparum, Erythrocyte, 72 h, Clone Dd2 (resistant to mefloquine), read-out: IC50 mefloquine alone): 0.0338 µM | IC50 ([3]; Plasmodium falciparum, Erythrocyte, 72 h, Clone HB3 (susceptible to mefloquine), read-out: IC50 mefloquine alone): 0.00896 µM
Compound: OC(c1cc(C(F)(F)F)nc2c(C(F)(F)F)cccc12)C1CCCCN1 (stereo not drawn) [mefloquine]

From patent US20080171768A1, “Pharmaceutical Composition Containing An Anti Parasitic Agent And Active Ingredient Selected From Carveol, Thymol, Eugenol, Borneol, Carvacrol, Alpha-Ionone, Or Beta-Ionone” (ADVANCED SCIENTIFIC DEVELOPMENTS, priority 2005, published 2008)
